Series [1] in a line: Stability assay in cell lysate. It counts as in vitro ADME. How it is done:
To the whole cell lysate prepared from U2OS cells with the freeze–thaw method was added the appropriate peptide, resulting in a mixture of 0.5 mg/mL protein and 600 μM peptide in PBS, and incubated at 37 °C. The samples were taken at 0, 15, 30 min, 1, 2, 4 h, 1, 3, and 7-days time points and mixed with an equal volume of ice-cold ethylparaben solution in MeOH (0.1 mg/mL), used as the internal standard. The samples were kept on ice for 15 min and centrifuged at 16,873 × g at 4 °C for 5 min. The obtained supernatant was then analyzed by HPLC, the peptide and the internal standard peaks at 210 nm were integrated, and the ratio of the peptide peak surface area to the internal standard was calculated. The experiment was conducted in duplicate.

Another series addresses T1, TIM-MEP50 complex (Homo sapiens, UniProt O14744).
T1 construct: made in house
Kind of series: Thermal shift assay (TSA). It counts as binding. The settings on record: for TSA Average Tm (°C): supplementary CSV. As for the experimental part: Thermal Shift Assays of peptides on the TIM-MEP50 complex were carried out in a 96-well PCR plate (LightCycler 480 Multiwell Plates 96, white, 04729692001). The purified protein complex was appropriately diluted in a buffer containing 50 mM HEPES (pH = 8.0), 250 mM NaCl, and 1 mM TCEP. All assay experiments used 5.36 μg of protein per well and […] 5000X Sypro Orange (Invitrogen) up to a total volume of 25 μL, with a resultant protein concentration of 3 μM and 5X SYPRO. Peptides were supplied at 10 mM concentration in DMSO. The PCR plates were sealed with an optical seal (LightCycler 480 Sealing Foil, 04729757001), shaken, and centrifuged after protein and compounds were added. Thermal scanning (25–95 °C at 1 °C/min) was performed using a real-time PCR setup (LightCycler 480 – Roche), and fluorescence intensity was measured after every temperature increment step. Analysis of the raw data was performed using internally developed software. Statistical validation of Tm shift relevance was performed using the Student’s t test (n = 6).

Series [2] addresses T2, PRMT5-MEP50 (Homo sapiens, UniProt O14744).
T2 construct: The compounds were tested by means of FP with the full-length PRMT5-MEP50 complex; made in house
Kind of series: MTase-Glo methyltransferase activity assay. Particulars: H4 histone tail peptide substrate. It is filed as biochemical.
Method: The assay was performed in 1× reaction buffer of 20 mM Tris, 50 mM NaCl, 1 mM EDTA, 3 mM MgCl2, 0.1 mg/mL BSA, and 1 mM DTT at pH = 8.0 in white, 384-well plates. […] The plate was incubated at 20–21 °C for 1 h. MTase-Glo detection solution (5 μL) was added, and the plate was incubated at 20–21 °C for 1 h, followed by a luminescence measurement at a plate reader. The experiment was performed in triplicate.

For series [3], the target named is T2, PRMT5-MEP50. Nature of the series: Competitive binding FP assay, FITC-labeled 50 as tracer. As for the experimental part:
(§1) The competitive binding assay was performed in a buffer of 50 mM HEPES, 250 mM NaCl, 1 mM TCEP, and 0.01% (v/v) Tween 20, 8.0 pH, in black, 384-well plates with a total volume of 10 μL per well. The FITC-labeled peptides or the Alexa 488-labeled pICln protein, at a final concentration of 1 nM, were mixed with PRMT5-MEP50 (at a final concentration of 194 nM when used with peptide 50, 600 nM with compound S1 [see Table S3] and 21, and 27 nM in the case of Alexa 488-labeled pICln), and the appropriate nonlabeled peptide or protein was titrated as two-fold dilution series. The plates were incubated at room temperature for up to 1 h 45 min and analyzed on a plate reader using 485 nm excitation and 535 nm emission wavelength. The experiment was performed in triplicate.

In a further series the target is T3, PRMT5-MEP50 + pICln (Homo sapiens, UniProt O14744).
T3 construct: made in house
Kind of series: Competitive FP assay with Alexa 488-labeled full-length human pICln. It is filed as binding. As for the experimental part: To a solution of the full-length pICln protein (ca. 1 mg/mL) in 0.2 M bicarbonate buffer with 1 mM TCEP at pH 8.3 was added 10 mM Alexa […] in DMSO (8 equiv). The solution was kept on ice under dark conditions overnight. The protein was washed 8–10 times with a buffer intended for the fluorescence polarization assay (50 mM HEPES, 250 mM NaCl, 1 mM TCEP, 8.0 pH) using an Amicon Ultra-0.5 mL spin filter (Merck, Germany). Protein concentration was determined using the NanoDrop spectrophotometer.
The competitive binding assay was performed in a buffer of 50 mM HEPES, 250 mM NaCl, 1 mM TCEP, and 0.01% (v/v) Tween 20, 8.0 pH, in black, 384-well plates with a total volume of 10 μL per well. […] The plates were incubated at room temperature for up to 1 h 45 min and analyzed on a plate reader using 485 nm excitation and 535 nm emission wavelength. The experiment was performed in triplicate.

The target of series [4] is T2, PRMT5-MEP50. Nature of the series: Competitive binding FP assay, compound 21 as tracer. As for the experimental part: as §1
For a further series, the target named is T4, PRMT5-MEP50 complex (Homo sapiens, UniProt O14744).
T4 construct: endogenous in cells; host or cells: MCF7
Kind of series: Pull-down with peptides immobilized on DBCO beads, MCF7 cell lysate. Particulars: MCF7 cell lysate, DBCO beads, western blot. It counts as binding. As for the experimental part:
DBCO agarose beads (300 μL; Jena Bioscience, Germany) were washed three times with PBS (600 μL, pH 7.4). To the beads suspended in PBS (600 μL) was added a 10 mM solution of azide-labeled peptide in DMSO or pure DMSO. The obtained suspensions were incubated overnight at 4 °C. The beads were washed with PBS three times for 10 min. MCF7 cells were harvested and lysed using Triton X100 lysis buffer (NaCl 150 mM, HEPES 25 mM, TCEP 1 mM, 1% Triton x100, 1% NP40 alternative, protease, and phosphatase inhibitor, pH 7.4). Empty beads, beads bound to an active peptide (55), or beads bound to a scrambled peptide (56) were added to the lysate (6 mg/mL) and rotated at 4 °C overnight. Beads attached to the active peptides were also incubated in the lysate containing a nonimmobilized/free active macrocycle (53 at 100 μM). Beads were collected by centrifugation (800g for 1 min) and washed three times for 10 min with PBS (500 μL). The beads were suspended in SDS-PAGE protein loading buffer (20 uL; […], 8% v/v glycerol, 2% SDS, […] (DTE), 0.02% bromophenol blue, pH 6.8), heated with shaking for 10 min at 95 °C, and centrifuged at 350 rpm. The obtained solutions were analyzed by western blotting using 10% acrylamide gels, and PVDF membranes and the relevant proteins were fluorescently detected using antibodies against PRMT5 and MEP50 and the corresponding secondary IRDye antibodies.
(Immunoblotting shows a protein as a band on a membrane.)

Series [5] deals with T2, PRMT5-MEP50. Kind of series: Direct binding fluorescence polarization (FP) assay of FITC-labeled peptides. The settings on record: supplementary CSV, read-out: PRMT5-MEP50 Kd. In general terms: Fluorescence polarisation rises when a labelled molecule tumbles more slowly, as on binding a larger partner.
Method: The assay was performed in a buffer of 50 mM 4-(2-hydroxyethyl)-1-piperazineethanesulfonic acid (HEPES), 250 mM NaCl, 1 mM tris(2-carboxyethyl)phosphine (TCEP), and 0.01% (v/v) Tween 20, pH 8.0, in black, 384-well plates with a total volume of 10 μL per well. […] The plates were incubated at room temperature for 1 to 2 h and analyzed on a plate reader using 485 nm excitation and 535 nm emission wavelength. The assay was performed in triplicate.

Entries after “also recorded” stand apart in the source; their conditions may differ. Where two headings read alike, the source gives them in different places. Square brackets hold non-standard residues; d marks the D form. Peptide text beside a SMILES is read from it. * marks the point of attachment. FITC = O=C1OC2(c3ccc(O)cc3Oc3cc(O)ccc32)c2ccc(NC(=S)*)cc21; hPhe = N[C@@H](CCc1ccccc1)C(=O)O Where only a bound is given, the exact number is not on record here.

Data on eight molecules can be found in paper PMC9706563, “Development of Macrocyclic PRMT5–Adaptor Protein Interaction Inhibitors” (Journal of Medicinal Chemistry, 2022).

By IC50 is commonly meant the concentration at which inhibition is half-maximal. Broadly, the Ki is a dissociation constant, usually derived from enzyme kinetics or from competition with a known ligand. Read a high Ki as weaker binding. The term Kd denotes a measure of binding affinity in units of concentration.

T2 sequence (O14744 whole entry): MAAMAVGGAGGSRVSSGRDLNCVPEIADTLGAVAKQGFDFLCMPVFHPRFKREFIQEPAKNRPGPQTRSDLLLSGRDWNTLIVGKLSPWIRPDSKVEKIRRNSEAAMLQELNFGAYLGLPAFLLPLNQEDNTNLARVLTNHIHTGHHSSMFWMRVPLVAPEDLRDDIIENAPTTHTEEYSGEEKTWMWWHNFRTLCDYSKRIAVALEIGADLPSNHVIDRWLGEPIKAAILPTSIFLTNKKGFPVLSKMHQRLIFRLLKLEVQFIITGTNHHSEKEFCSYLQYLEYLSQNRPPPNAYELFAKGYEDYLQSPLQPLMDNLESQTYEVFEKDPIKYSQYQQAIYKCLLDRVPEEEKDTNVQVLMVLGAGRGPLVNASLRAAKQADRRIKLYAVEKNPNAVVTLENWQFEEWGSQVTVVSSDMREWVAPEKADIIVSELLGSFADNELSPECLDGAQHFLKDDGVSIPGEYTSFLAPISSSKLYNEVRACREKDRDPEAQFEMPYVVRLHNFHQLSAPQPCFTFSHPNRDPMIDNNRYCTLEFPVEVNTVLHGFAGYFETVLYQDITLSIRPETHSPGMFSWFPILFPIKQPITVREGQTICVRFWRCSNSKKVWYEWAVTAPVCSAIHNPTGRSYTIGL
T2 sequence (Q9BQA1 whole entry partner): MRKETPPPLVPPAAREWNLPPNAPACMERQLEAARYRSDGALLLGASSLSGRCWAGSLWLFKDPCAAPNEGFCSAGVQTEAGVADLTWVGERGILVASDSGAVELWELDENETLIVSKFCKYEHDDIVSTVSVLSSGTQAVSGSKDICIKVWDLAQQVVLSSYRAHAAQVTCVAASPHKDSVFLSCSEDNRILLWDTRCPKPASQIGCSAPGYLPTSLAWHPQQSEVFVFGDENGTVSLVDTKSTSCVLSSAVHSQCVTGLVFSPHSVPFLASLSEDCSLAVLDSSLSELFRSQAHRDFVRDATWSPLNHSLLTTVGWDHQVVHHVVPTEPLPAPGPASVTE
T3 sequence (O14744 whole entry): as the sequence (O14744 whole entry) above
T3 sequence (Q9BQA1 whole entry partner): as the sequence (Q9BQA1 whole entry partner) above
T1 sequence (O14744 13-292 limits assumed): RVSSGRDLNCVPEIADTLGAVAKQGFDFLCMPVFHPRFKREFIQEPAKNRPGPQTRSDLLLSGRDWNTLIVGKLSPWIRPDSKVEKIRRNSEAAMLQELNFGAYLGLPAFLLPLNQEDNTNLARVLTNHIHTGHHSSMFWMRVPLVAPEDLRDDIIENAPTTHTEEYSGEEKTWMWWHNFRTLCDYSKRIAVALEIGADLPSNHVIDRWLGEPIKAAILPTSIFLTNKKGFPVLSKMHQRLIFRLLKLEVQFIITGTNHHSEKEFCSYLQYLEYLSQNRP
T1 sequence (Q9BQA1 whole entry partner): as the sequence (Q9BQA1 whole entry partner) above
T4 sequence (O14744 whole entry): as the sequence (O14744 whole entry) above
T4 sequence (Q9BQA1 whole entry partner): as the sequence (Q9BQA1 whole entry partner) above

With `CC(=O)N[C@H](C(=O)N1CCC[C@H]1C(=O)NC1CCCCC[C@@H](C(=O)N[C@@H](CC(=O)O)C(=O)N[C@@H](C)C(=O)N[C@@H](CC(=O)O)C(N)=O)NC(=O)[C@H](Cc2ccccc2)NC(=O)[C@H](CCC(N)=O)NC1=O)C(C)C` (stereo in doubt) [Compound 30], the half-life in series [1] (U2OS cell lysate, 37 °C, 600 μM peptide, read-out: half-life (converted)) is 299 h. Also, the “increase of half-life over the linear 31” value in series [1] (cell lysate, 37 °C) was 70 fold. For the same molecule, the “Half-llife in Lysate” value in series [1] (supplementary CSV) turned out to be 12.5 days. Also, the “TSA Average Tm (°C)” value at TIM-MEP50 complex came out at 51.32 ± 0.00 °C. Further, the “effect on direct methylation activity of PRMT5” value at PRMT5-MEP50 [2] was “has no effect; also recorded: does not interfere with the direct methylation activity of the enzyme”. Further, the IC50 came out at 1060 ± 240 nM at PRMT5-MEP50 [3] (competitive FP, compound 50 as tracer, 194 nM PRMT5-MEP50); 3200 ± 2400 nM on PRMT5-MEP50 + pICln (competition with labeled pICln, supplementary CSV, read-out: PRMT5-MEP50 + pICln IC50); 1170 ± 290 nM on PRMT5-MEP50 [4] (competitive FP, compound 21 as tracer, 600 nM PRMT5-MEP50). On PRMT5-MEP50 [4] (from competitive FP with tracer 21), this molecule came in with an inhibition constant (Ki) of 313 ± 121 nM.
Consider `CC(=O)N1CCC[C@H]1C(=O)N[C@H](C(=O)N[C@@H]1CCCCC[C@@H](C(=O)N[C@@H](Cc2ccc([N+](=O)[O-])cc2)C(=O)N[C@@H](CC(C(=O)O)C(=O)O)C(=O)N[C@@H](CCC(N)=O)C(N)=O)NC(=O)[C@H](CC(=O)O)NC(=O)[C@H](C)NC1=O)C(C)C` [Compound 54], for which the “increase of the average melting temperature” value on TIM-MEP50 complex (TSA, PRMT5 TIM barrel-MEP50 complex, n = 6) is on record as “No stabilization”. Besides, the “TSA Average Tm (°C)” value on TIM-MEP50 complex came to 49.32 ± 0.18 °C. Also, the Ki entry on PRMT5-MEP50 [3] (from competitive FP with tracer 50) is on record as “n.b”. For the same molecule, the “PRMT5-MEP50 Ki (µM)” value on PRMT5-MEP50 [3] (from competitive FP with tracer 50, supplementary CSV) is recorded as “nb”. On PRMT5-MEP50 + pICln (competition with Alexa 488-labeled pICln, 27 nM PRMT5-MEP50), the IC50 entry was “did not compete”. Further, the “PRMT5-MEP50 + pICln IC50 (µM)” value on PRMT5-MEP50 + pICln (competition with labeled pICln, supplementary CSV) is listed as “nb”.
For `CC(=O)N[C@H](C(=O)N1CCC[C@H]1C(=O)N[C@@H]1CCCCC[C@@H](C(=O)N[C@@H](CC(=O)O)C(=O)N[C@@H](C)C(=O)N[C@@H](CC(C(=O)O)C(=O)O)C(=O)N[C@@H](CCCCNC(=O)COCCOCCOCCN=[N+]=[N-])C(N)=O)NC(=O)[C@H](Cc2ccc([N+](=O)[O-])cc2)NC(=O)[C@H](CCC(N)=O)NC1=O)C(C)C` [Compound 55], the “enrichment of the PRMT5-MEP50 complex by immobilized peptide” value on PRMT5-MEP50 complex is recorded as “successfully enriched the PRMT5-MEP50 complex”.
`CC(=O)N1CCC[C@H]1C(=O)N[C@H](C(=O)N[C@@H]1CCCCC[C@@H](C(=O)N[C@@H](Cc2ccc([N+](=O)[O-])cc2)C(=O)N[C@@H](CC(C(=O)O)C(=O)O)C(=O)N[C@@H](CCC(N)=O)C(=O)N[C@@H](CCCCNC(=O)COCCOCCOCCN=[N+]=[N-])C(N)=O)NC(=O)[C@H](CC(=O)O)NC(=O)[C@H](C)NC1=O)C(C)C` [Compound 56]: the “enrichment of the PRMT5-MEP50 complex by immobilized peptide” value on PRMT5-MEP50 complex is recorded as “did not show significant interaction”.
In the case of `CC(=O)N[C@H](C(=O)N1CCC[C@H]1C(=O)NCC(=O)N[C@@H](CCC(N)=O)C(=O)N[C@@H](Cc1ccccc1)C(=O)N[C@@H](CC(=O)O)C(=O)N[C@@H](CC(=O)O)C(=O)N[C@@H](C)C(=O)N[C@@H](Cc1c[nH]c2ccccc12)C(=O)N[C@@H](CCCCNC(=S)Nc1ccc2c(c1)C(=O)OC21c2ccc(O)cc2Oc2cc(O)ccc21)C(N)=O)C(C)C` [Compound S33] (Ac-VPGQFDDAWK(FITC)-NH2), at PRMT5-MEP50 [5], the Kd is more than 1000 nM.
Turning to `CC(=O)N[C@H](C(=O)N1CCC[C@H]1C(=O)NCC(=O)N[C@@H](CCC(N)=O)C(=O)N[C@@H](Cc1ccccc1)C(=O)N[C@@H](CC(=O)O)C(=O)N[C@@H](CC(=O)O)C(=O)N[C@@H](C)C(=O)N[C@@H](CCc1ccccc1)C(=O)N[C@@H](CCCCNC(=S)Nc1ccc2c(c1)C(=O)OC21c2ccc(O)cc2Oc2cc(O)ccc21)C(N)=O)C(C)C` [Compound S34] (Ac-VPGQFDDA[hPhe]K(FITC)-NH2), the Kd at PRMT5-MEP50 [5] is more than 1000 nM.
As for `O=C(NC[C@H](O)CN1CCc2ccccc2C1)c1cc(NC2COC2)ncn1` [EPZ015666, reference compound], the “effect on direct methylation activity of PRMT5” value on PRMT5-MEP50 [2] was “is able to inhibit”.
For the molecule Ac-VPGQFDDAD-NH2 [Compound 31], the half-life in series [1] (U2OS cell lysate, 37 °C, 600 μM peptide) was 4.4 h; in series [1] (cells or culture medium, supplementary CSV, read-out: Half-llife in Lysate (converted)), 4.32 h.
